Measured values as given in patent EP0003892A1, “Beta-lactam compounds, processes for their production, compositions containing them and intermediates of use in their preparation” (GLAXO GROUP LIMITED, priority 1978, dated 1979).
≈ marks a conversion by molar mass, not a printed value. Like-named read-outs stand apart in the source and are kept apart here.

What was measured:
Assay in all cases: Determination of Minimum Inhibitory Concentrations (MIC), agar dilution
Assay type in all cases: cell-based
[1] = tested on: Staph.aureus 853E; details: Staphylococcus aureus
Experimental: (§1) 1. Determination of Minimum Inhibitory Concentrations (MIC)
(§2) Serial two-fold dilutions of freshly prepared test solutions were made into Oxoid No. 1 Nutrient agar with or without added enrichment and poured into petri diches. Plates were inoculated with a multipoint inoculator with inoculum containing approximately […] of the organisms shown in the following Tables, all of which organisms are clinical isolates. The MIC, quoted in the Tables as µg/ml, was read after 18 hours incubation at 37°C as the lowest concentration which inhibited growth.

[2] = tested on: Micrococcus Sp 1810E; details: SP1810E
Experimental: as §1, §2

[3] = tested on: E. cloacae 1051E; details: Enterobacter cloacae
Experimental: as §1, §2

[4] = tested on: H. influenzae 1184E; details: Haemophilus influenzae
Experimental: as §1, §2

[5] = tested on: E. cloacae 1321E; details: Enterobacter cloacae
Experimental: as §1, §2

[6] = tested on: E. coli 851E; details: Escherichia coli
Experimental: as §1, §2

[7] = tested on: K. aerogenes 1522E; details: Klebsiella aerogenes
Experimental: as §1, §2

[8] = tested on: Pr. mirabilis 431E; details: Proteus mirabilis
Experimental: as §1, §2

Structure (SMILES) | MIC ([1]; 853E, 18 h) | MIC ([2]; Micrococcus, 18 h) | MIC ([3]; 1051E, 18 h) | MIC ([4]; 1184E, 18 h) | MIC ([5]; 1321E, 18 h) | MIC ([6]; 851E, 18 h) | MIC ([7]; 1522E, 18 h) | MIC ([8]; 431E, 18 h) | MIC ([1]; Staph.aureus 853E, clinical isolate, Oxoid No. 1 Nutrient agar, read after 18 hours incubation at 37°C, read-out: MIC) | MIC ([2]; Micrococcus Sp 1810E, clinical isolate, Oxoid No. 1 Nutrient agar, read after 18 hours incubation at 37°C, read-out: MIC) | MIC ([3]; E. cloacae 1051E, clinical isolate, Oxoid No. 1 Nutrient agar, read after 18 hours incubation at 37°C, read-out: MIC) | MIC ([4]; H. influenzae 1184E, clinical isolate, Oxoid No. 1 Nutrient agar, read after 18 hours incubation at 37°C, read-out: MIC) | MIC ([5]; E. cloacae 1321E, clinical isolate, Oxoid No. 1 Nutrient agar, read after 18 hours incubation at 37°C, read-out: MIC) | MIC ([6]; E. coli 851E, clinical isolate, Oxoid No. 1 Nutrient agar, read after 18 hours incubation at 37°C, read-out: MIC) | MIC ([7]; K. aerogenes 1522E, clinical isolate, Oxoid No. 1 Nutrient agar, read after 18 hours incubation at 37°C, read-out: MIC) | MIC ([8]; Pr. mirabilis 431E, clinical isolate, Oxoid No. 1 Nutrient agar, read after 18 hours incubation at 37°C, read-out: MIC)
CC(=O)SCCC1=C(C(=O)[O-])N2C(=O)CC2S1.[K+] (racemic) [Example 29, Potassium (5RS)-2-(2-acetylthioethyl)pen-2-em-3-carboxylate] | < 0.1 µg/mL | < 0.1 µg/mL | 16 µg/mL | 8 µg/mL | 1 µg/mL | 1 µg/mL | 2 µg/mL | 1 µg/mL | – | – | – | – | – | – | – | –
CCOC(=S)SCCC1=C(C(=O)[O-])N2C(=O)CC2S1.[K+] (racemic) [Example 36, Potassium (5RS)-2-(2-ethoxythiocarbonylthioethyl)pen-2-em-3-carboxylate] | < 0.1 µg/mL | < 0.1 µg/mL | 62 µg/mL | 4 µg/mL | 16 µg/mL | 8 µg/mL | 16 µg/mL | 8 µg/mL | – | – | – | – | – | – | – | –
CN(C)C(=S)SCCC1=C(C(=O)O)N2C(=O)CC2S1 (racemic) [Example 38, (5RS)-2-(2-N,N-Dimethylthiocarbamoylthioethyl)pen-2-em-3-carboxylic acid] | – | – | – | – | – | – | – | – | < 0.1 µg/mL | < 0.1 µg/mL | > 250 µg/mL | 2 µg/mL (≈ 6.28 µM) | 31 µg/mL (≈ 97.3 µM) | 31 µg/mL (≈ 97.3 µM) | 31 µg/mL (≈ 97.3 µM) | 16 µg/mL (≈ 50.2 µM)
